Reference: ChEMBL document CHEMBL5465560, “Selectivity Literature for EUbOPEN Chemogenomic Library” (2024)
Blank lines part the entries; values can stand above or below the compound they belong to.

Tests used:
[1] = target: Tyrosine-protein kinase Fes/Fps (Homo sapiens) (UniProt P07332); assay: Selectivity interaction (Millipore kinase profiler) EUB0000124b FES; settings: at 10 µM
[2] = target: Protein-tyrosine kinase 6 (Homo sapiens, UniProt Q13882); assay: Selectivity interaction (KinomeScan (DiscoverX)) EUB0001049a PTK6; settings: at 1 µM
Chain of Protein-tyrosine kinase 6 (Q13882 whole entry, looked up): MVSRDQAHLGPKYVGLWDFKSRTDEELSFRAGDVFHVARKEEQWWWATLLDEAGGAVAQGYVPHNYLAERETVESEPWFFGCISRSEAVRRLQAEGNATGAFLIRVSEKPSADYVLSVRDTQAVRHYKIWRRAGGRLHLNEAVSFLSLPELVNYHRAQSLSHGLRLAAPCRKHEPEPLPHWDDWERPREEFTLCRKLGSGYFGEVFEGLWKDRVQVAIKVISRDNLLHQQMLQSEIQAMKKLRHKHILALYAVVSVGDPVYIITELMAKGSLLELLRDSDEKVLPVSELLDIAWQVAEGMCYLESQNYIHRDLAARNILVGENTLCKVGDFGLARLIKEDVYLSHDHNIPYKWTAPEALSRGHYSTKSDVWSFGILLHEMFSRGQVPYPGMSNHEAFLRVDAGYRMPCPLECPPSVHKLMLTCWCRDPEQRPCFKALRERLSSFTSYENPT

[3] = target: T1, Phosphatidylinositol 5-phosphate 4-kinase type-2 gamma (Homo sapiens) (UniProt Q8TBX8); assay: Selectivity interaction (KinomeScan (DiscoverX)) EUB0001049a PIP4K2C; settings: at 1 µM
T1 sequence (whole entry): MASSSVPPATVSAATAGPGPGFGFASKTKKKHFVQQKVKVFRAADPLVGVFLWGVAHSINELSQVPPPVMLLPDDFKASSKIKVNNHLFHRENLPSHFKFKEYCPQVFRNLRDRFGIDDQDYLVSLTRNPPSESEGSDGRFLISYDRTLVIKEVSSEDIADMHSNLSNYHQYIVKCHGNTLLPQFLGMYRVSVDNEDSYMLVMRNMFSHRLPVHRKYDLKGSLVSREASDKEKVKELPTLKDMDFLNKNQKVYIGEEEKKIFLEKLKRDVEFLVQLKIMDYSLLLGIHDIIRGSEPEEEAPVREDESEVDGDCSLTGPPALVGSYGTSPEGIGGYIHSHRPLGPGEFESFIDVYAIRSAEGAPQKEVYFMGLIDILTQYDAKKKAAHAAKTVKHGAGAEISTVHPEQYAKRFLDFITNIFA

[4] = target: Serine/threonine-protein kinase PLK1 (Homo sapiens, UniProt P53350); assay: Selectivity interaction (ActivX KiNativ screen (kinase selectivity in THP-1 cell lysates)) EUB0000639a PLK1; type: subcellular; settings: lysate
Chain of Serine/threonine-protein kinase PLK1 (P53350 whole entry): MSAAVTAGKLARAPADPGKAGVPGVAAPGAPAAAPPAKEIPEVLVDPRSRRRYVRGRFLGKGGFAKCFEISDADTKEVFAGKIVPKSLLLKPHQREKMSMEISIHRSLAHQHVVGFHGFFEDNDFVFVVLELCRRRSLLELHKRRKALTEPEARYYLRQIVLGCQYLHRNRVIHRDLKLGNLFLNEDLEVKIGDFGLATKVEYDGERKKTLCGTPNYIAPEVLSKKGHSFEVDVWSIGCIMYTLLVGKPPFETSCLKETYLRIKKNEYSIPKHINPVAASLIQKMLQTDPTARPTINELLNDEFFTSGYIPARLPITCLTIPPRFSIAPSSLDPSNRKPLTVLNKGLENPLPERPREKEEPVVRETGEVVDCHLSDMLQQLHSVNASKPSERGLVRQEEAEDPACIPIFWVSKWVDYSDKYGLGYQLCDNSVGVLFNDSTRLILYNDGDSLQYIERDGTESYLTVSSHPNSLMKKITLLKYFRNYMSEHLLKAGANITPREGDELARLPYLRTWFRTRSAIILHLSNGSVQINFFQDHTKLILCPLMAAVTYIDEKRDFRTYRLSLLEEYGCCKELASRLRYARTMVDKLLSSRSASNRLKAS

[5] = target: T2, Serine/threonine-protein kinase Sgk3 (Homo sapiens) (UniProt Q96BR1); assay: Selectivity interaction (ActivX KiNativ screen (kinase selectivity in THP-1 cell lysates)) EUB0000639a SGK3; type: subcellular; settings: lysate, at 0.04 µM
T2 sequence (whole entry): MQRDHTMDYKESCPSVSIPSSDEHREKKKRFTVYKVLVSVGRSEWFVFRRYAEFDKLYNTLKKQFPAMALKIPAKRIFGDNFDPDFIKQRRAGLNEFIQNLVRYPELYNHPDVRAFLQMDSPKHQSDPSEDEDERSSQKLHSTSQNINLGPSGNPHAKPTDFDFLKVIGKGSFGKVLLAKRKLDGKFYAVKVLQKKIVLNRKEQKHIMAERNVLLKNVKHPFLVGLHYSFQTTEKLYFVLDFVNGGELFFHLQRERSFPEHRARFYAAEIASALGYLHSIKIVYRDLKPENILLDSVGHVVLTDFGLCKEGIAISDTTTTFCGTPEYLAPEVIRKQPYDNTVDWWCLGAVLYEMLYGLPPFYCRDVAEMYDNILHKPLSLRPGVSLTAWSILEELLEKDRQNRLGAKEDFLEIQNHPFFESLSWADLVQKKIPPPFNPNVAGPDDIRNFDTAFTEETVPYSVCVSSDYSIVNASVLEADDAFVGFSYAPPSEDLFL

[6] = target: Dual specificity mitogen-activated protein kinase kinase 1 (Homo sapiens, UniProt Q02750); assay: Selectivity interaction (Kinase panel (Z-LYTE Assay)) EUB0001632a MAP2K1; settings: at 10 µM
[7] = target: Non-receptor tyrosine-protein kinase TYK2 (Homo sapiens, UniProt P29597); settings: at 10 µM
[8] = target: Wee1-like protein kinase (Homo sapiens) (UniProt P30291); settings: at 10 µM
[9] = target: Histone-lysine N-methyltransferase, H3 lysine-36 specific (Homo sapiens) (UniProt Q96L73); assay: Selectivity interaction (Methyltransferase screen (radiometric assays, panel of 8 PRMTs, 21 protein lysine methyltransferases, 3 DNA methyltransferases, and one RNA methyltransferase)) EUB0000271b NSD1
Chain of Histone-lysine N-methyltransferase, H3 lysine-36 specific (Homo sapiens) (Q96L73 whole entry): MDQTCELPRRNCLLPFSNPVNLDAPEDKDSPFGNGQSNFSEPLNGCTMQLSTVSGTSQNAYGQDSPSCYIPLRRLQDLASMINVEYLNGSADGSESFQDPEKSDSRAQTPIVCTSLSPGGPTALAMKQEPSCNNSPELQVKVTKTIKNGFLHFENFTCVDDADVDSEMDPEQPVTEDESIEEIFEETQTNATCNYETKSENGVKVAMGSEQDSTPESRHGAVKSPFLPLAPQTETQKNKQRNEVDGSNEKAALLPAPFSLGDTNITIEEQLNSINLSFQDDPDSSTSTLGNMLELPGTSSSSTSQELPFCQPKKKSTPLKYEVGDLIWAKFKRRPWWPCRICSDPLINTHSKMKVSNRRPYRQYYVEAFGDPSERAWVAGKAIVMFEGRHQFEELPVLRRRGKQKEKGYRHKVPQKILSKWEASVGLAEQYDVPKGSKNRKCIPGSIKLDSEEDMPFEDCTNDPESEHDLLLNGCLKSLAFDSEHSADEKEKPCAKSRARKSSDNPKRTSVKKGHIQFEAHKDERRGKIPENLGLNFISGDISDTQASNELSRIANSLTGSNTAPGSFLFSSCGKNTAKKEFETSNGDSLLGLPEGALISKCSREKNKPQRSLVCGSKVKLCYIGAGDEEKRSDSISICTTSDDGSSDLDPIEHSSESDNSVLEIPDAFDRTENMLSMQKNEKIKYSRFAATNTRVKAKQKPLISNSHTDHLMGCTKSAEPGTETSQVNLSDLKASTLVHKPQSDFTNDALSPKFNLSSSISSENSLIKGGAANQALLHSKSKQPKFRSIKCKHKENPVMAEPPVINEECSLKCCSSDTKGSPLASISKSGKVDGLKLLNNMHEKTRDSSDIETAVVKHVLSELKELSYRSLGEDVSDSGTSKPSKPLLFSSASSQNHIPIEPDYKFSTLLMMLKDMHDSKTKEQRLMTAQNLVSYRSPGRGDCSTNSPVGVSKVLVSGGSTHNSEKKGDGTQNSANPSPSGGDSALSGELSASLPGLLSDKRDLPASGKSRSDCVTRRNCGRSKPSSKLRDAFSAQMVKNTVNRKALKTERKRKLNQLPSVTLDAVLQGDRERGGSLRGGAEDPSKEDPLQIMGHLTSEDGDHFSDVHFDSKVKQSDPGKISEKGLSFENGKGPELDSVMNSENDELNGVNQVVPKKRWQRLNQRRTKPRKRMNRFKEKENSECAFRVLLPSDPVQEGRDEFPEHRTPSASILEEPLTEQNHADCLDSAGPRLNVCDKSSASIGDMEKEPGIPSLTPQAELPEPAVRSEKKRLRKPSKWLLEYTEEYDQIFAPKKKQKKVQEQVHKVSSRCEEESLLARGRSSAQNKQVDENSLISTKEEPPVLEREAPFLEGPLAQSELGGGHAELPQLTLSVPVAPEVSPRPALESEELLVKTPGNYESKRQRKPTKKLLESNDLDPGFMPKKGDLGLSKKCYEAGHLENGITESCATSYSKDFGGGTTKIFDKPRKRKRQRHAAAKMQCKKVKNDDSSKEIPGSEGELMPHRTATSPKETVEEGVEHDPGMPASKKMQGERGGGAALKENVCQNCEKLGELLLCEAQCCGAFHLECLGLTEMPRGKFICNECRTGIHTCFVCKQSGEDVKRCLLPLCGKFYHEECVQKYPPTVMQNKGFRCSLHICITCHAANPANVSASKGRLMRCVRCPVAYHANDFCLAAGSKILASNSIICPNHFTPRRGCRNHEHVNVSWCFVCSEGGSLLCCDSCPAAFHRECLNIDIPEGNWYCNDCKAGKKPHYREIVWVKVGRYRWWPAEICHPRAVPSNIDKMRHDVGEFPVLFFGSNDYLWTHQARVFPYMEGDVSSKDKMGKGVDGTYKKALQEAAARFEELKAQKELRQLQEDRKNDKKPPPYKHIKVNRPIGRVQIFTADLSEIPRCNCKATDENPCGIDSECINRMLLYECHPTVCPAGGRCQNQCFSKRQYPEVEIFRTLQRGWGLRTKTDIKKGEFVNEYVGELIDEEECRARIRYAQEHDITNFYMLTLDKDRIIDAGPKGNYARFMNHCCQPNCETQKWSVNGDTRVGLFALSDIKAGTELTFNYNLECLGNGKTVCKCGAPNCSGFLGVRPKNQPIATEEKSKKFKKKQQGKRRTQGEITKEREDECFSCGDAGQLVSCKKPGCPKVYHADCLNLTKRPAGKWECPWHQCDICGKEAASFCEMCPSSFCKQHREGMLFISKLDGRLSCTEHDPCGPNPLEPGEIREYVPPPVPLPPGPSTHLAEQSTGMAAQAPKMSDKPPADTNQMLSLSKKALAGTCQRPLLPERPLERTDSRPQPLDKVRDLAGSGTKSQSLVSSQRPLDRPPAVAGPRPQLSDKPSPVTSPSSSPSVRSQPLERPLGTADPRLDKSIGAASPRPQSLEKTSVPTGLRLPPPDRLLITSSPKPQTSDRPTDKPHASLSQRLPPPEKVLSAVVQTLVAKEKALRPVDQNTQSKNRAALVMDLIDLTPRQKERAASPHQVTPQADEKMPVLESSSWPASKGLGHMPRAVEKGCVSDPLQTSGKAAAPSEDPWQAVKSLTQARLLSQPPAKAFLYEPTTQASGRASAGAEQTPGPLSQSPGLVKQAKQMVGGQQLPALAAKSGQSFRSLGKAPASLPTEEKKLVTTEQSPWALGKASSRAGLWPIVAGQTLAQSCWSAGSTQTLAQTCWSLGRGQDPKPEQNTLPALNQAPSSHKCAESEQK

[10] = target: Insulin-like growth factor 1 receptor (Homo sapiens, UniProt P08069); assay: Selectivity interaction (KinomeScan (DiscoverX)) EUB0000595a IGF1R; settings: at 10 µM
Chain of Insulin-like growth factor 1 receptor (P08069 31-736 limits assumed): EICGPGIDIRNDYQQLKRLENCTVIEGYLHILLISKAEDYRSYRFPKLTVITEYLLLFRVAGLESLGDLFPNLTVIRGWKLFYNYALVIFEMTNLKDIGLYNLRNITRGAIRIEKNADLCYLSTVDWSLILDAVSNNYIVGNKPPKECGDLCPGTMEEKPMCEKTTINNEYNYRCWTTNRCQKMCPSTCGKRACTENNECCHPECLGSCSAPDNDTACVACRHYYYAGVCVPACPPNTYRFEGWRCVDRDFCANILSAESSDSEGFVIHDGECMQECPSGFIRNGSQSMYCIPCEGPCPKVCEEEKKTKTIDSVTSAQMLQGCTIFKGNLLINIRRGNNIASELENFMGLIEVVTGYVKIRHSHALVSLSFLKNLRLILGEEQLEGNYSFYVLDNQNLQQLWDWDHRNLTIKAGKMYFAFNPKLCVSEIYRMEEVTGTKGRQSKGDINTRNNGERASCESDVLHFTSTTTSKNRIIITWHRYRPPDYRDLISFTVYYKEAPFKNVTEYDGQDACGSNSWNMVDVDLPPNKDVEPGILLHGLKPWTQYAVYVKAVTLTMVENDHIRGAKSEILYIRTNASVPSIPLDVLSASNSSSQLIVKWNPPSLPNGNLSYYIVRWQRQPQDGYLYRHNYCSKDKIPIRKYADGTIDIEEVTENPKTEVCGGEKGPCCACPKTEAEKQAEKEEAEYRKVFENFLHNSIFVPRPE
Chain of Insulin-like growth factor 1 receptor (P08069 741-1367 limits assumed): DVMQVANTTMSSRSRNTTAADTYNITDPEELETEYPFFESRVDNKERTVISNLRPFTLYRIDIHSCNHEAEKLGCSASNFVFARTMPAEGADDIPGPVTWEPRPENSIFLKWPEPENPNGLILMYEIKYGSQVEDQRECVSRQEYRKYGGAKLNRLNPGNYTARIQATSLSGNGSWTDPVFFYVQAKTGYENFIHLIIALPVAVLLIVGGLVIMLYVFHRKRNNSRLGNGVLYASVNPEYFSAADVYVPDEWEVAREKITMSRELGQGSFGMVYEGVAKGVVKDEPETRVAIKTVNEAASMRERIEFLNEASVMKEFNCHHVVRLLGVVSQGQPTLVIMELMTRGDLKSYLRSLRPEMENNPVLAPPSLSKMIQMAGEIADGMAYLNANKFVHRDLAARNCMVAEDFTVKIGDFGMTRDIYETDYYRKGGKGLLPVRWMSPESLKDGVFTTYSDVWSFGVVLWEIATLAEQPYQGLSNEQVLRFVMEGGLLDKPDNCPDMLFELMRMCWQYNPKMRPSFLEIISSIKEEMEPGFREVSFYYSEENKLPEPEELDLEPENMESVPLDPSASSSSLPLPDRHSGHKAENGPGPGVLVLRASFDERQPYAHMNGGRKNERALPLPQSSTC

[11] = target: T3, Dual specificity mitogen-activated protein kinase kinase 7 (Homo sapiens) (UniProt O14733); assay: Selectivity interaction (KinomeScan (DiscoverX)) EUB0000229b MAP2K7; settings: at 10 µM
T3 sequence (whole entry): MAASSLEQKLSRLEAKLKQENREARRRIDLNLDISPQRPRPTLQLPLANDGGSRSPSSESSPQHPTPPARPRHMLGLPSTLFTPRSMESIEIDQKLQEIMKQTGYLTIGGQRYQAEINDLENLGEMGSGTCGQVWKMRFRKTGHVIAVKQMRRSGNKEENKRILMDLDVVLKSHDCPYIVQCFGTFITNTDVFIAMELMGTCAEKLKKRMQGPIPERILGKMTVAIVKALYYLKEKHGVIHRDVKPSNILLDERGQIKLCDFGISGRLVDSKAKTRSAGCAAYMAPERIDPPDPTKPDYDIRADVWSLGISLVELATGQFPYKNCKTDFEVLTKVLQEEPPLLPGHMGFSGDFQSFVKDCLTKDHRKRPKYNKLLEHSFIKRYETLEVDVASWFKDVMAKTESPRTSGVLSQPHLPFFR

[12] = target: Wee1-like protein kinase 2 (Homo sapiens) (UniProt P0C1S8); assay: Selectivity interaction (KinomeScan (DiscoverX)) EUB0000655a WEE2; settings: at 10 µM
[13] = target: T4, Megakaryocyte-associated tyrosine-protein kinase (Homo sapiens) (UniProt P42679); assay: Selectivity interaction (KinomeScan (DiscoverX)) EUB0000666a MATK; settings: at 10 µM
T4 sequence (whole entry): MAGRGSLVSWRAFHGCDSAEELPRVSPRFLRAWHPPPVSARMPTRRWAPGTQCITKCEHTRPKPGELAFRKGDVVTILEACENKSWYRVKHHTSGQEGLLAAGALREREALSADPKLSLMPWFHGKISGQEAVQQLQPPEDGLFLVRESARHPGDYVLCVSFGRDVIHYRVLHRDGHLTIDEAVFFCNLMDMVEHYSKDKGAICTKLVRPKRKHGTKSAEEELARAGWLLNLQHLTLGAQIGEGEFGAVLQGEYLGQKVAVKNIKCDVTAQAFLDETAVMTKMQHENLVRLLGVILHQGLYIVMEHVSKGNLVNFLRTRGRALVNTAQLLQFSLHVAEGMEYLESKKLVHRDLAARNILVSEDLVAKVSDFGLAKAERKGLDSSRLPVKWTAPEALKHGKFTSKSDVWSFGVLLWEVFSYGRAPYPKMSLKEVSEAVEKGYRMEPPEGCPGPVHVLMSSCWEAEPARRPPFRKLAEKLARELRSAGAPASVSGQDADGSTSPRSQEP

- % of control [1]: 95%
Structure (SMILES): CC(=O)Nc1cccc(-n2c(=O)n(C3CC3)c(=O)c3c(Nc4ccc(I)cc4F)n(C)c(=O)c(C)c32)c1

Structure (SMILES): COc1cc(Nc2nc(C)cc(-c3cnn4nc(OC)ccc34)n2)cc(C(F)(F)F)c1
- % of control [2]: 100%
- % of control [3]: 100%

- % of inhibition ([4]; at 0.01 µM): 7.9%
- % of inhibition ([4]; at 0.04 µM): 2%
- % of inhibition ([4]; at 0.2 µM): -17.6%
- % of inhibition ([4]; at 1 µM): -0.9%
- % of inhibition ([4]; at 5 µM): -0.9%
- % of inhibition [5]: 3.1%
Structure (SMILES): CC[C@@H]1[C@H](F)C(=O)N[C@@H]1COc1nccc2cc(C(N)=O)c(OC)cc12 [ZIMLOVISERTIB]

- % of control [6]: -2.06%
Structure (SMILES): Cn1cc(-n2cnc3c(NCc4nc5cc(Cl)c(Cl)cc5[nH]4)nc(N4CCOCC4)nc32)cn1

- % of control [7]: 100%
- % of control [8]: 100%
Structure (SMILES): CCN(CC)CCCCNc1ncc2cc(-c3cc(OC)cc(OC)c3)c(NC(=O)NC(C)(C)C)nc2n1

Structure (SMILES): Cc1cc(C)cc([C@@H]2c3cc(C)ccc3NC(=O)CN2C(=O)c2ccc(Br)s2)c1
- % of activity ([9]; at 1 µM): 97%
- % of activity ([9]; at 10 µM): 103%

Structure (SMILES): COCC(=O)NC/C=C/c1ccc2ncnc(Nc3ccc(Oc4ccc(C)nc4)c(C)c3)c2c1 [CP-724714]
- % of control [10]: 83%

Structure (SMILES): COc1cc(N(C)c2ccnc3ccc(C(F)(F)F)cc23)cc(OC)c1OC
- % binding [11]: 83%

Structure (SMILES): CN(C)CCOc1ccc(-c2nc(-c3ccncc3)c(-c3ccc4c(c3)CC/C4=N\O)[nH]2)cc1
- % of control [12]: 100%

Structure (SMILES): O=C(NOC[C@H](O)CO)c1ccc(F)c(F)c1Nc1ccc(I)cc1F
- % of control [13]: 100%
